# Counter-ions that a name gives are not always drawn.
# Target: T1, human CYP1A2 (Homo sapiens, UniProt P05177)
# T1 sequence (P05177 1-516): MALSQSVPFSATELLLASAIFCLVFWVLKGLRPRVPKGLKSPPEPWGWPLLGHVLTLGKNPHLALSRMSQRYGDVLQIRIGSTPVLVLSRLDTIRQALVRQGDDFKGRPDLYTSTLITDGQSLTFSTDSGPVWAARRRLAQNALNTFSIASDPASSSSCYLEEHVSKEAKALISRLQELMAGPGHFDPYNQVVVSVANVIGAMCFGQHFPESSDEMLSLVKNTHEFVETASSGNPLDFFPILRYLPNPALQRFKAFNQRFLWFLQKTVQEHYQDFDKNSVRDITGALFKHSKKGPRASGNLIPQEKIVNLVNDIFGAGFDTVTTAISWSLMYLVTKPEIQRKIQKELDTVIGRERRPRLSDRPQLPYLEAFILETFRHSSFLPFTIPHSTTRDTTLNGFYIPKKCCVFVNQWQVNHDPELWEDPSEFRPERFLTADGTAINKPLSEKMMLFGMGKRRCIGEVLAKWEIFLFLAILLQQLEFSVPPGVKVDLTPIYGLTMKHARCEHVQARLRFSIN
# Assay: not given
# Settings: not given
Structure (SMILES),CYP1A2 IC50,CYP1A2 IC50 (half-maximal inhibitory concentration)
"Cc1ccccc1NC(=N)Nc1ccccc1C [1,3-Bis(2-methylphenyl)guanidine]",Inactive,
COc1ccc(C(O)(c2cncnc2)C2CC2)cc1 (stereo not drawn) [Ancymidol],,Inactive
COc1cc(N)c(Cl)cc1C(=O)NC1CCN(Cc2ccccc2)CC1 [Clebopride maleate],,Inactive
COC(=O)N(C(=O)N1CO[C@@]2(C(=O)OC)Cc3cc(Cl)ccc3C2=N1)c1ccc(OC(F)(F)F)cc1 [Indoxacarb],,Inactive
COc1cccc(C(=O)NN(C(=O)c2cc(C)cc(C)c2)C(C)(C)C)c1C [Methoxyfenozide],,Inactive

# Target: Photinus pyralis (firefly) luciferase (Photinus pyralis, UniProt P08659)
# Sequence (P08659 whole entry): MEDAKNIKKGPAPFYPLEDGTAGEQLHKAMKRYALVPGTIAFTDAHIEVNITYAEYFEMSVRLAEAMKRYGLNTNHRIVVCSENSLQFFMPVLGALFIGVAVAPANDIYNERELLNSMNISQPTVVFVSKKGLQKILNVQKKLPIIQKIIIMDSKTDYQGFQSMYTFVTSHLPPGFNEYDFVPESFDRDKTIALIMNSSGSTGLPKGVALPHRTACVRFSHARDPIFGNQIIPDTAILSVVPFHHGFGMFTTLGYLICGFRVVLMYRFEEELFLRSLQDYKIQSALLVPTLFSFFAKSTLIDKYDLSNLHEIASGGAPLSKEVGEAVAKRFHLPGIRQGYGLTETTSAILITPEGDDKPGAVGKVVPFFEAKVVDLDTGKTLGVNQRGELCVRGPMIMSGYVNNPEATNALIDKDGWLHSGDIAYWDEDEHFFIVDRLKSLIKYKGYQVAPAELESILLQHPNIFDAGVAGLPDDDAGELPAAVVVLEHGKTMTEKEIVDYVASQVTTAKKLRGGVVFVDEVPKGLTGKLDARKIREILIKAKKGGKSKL
# Assay: biochemical
# Assay type: biochemical
# Settings: not given
Structure (SMILES),Luciferase IC50,Luciferase IC50 (half-maximal inhibitory concentration),IC50 [µM]
c1ccc2sc(SN(C3CCCCC3)C3CCCCC3)nc2c1,Inactive,,
Fc1ccc([C@]2(Cn3cncn3)O[C@H]2c2ccccc2Cl)cc1 (racemic) [Epoxiconazole],,Inactive,
CC(C)(C)[C@@H](O)[C@@H](Cc1ccc(Cl)cc1)n1cncn1 (racemic) [Paclobutrazol],,Inactive,
"Cc1ccccc1NC(=N)Nc1ccccc1C [1,3-Bis(2-methylphenyl)guanidine]",Inactive,,
"Nc1ccc(N)c2c1C(=O)c1ccccc1C2=O [1,4-Diaminoanthraquinone]",,,15.2
Cc1ccc2ccc3cccc4ccc1c2c34 [1-Methylpyrene],,,44.9
"Cc1cc(C)c(N)cc1C [2,4,5-Trimethylaniline]",,,15.8
"O=S(=O)(Oc1ccc(Cl)cc1Cl)c1ccccc1 [2,4-Dichlorophenyl benzenesulfonate]",,,54.6
Nc1ccc2c(c1)C(=O)c1ccccc1C2=O [2-Aminoanthraquinone],,,2.67
"Cc1cc(-c2ccc(N)c(C)c2)ccc1N [3,3'-Dimethylbenzidine]",,,76.3
"CN(C)c1ccc(Cc2ccc(N(C)C)cc2)cc1 [4,4'-Methylenebis(N,N-dimethylaniline)]",,Inactive,
"Cc1cc(O)c(C(C)(C)C)cc1Sc1cc(C(C)(C)C)c(O)cc1C [4,4'-Thiobis(6-tert-butyl-m-cresol)]",,Inactive,
COc1ccc(C(O)(c2cncnc2)C2CC2)cc1 (stereo not drawn) [Ancymidol],,Inactive,
COc1cc(N)c(Cl)cc1C(=O)NC1CCN(Cc2ccccc2)CC1 [Clebopride maleate],,Inactive,
COC(=O)N(C(=O)N1CO[C@@]2(C(=O)OC)Cc3cc(Cl)ccc3C2=N1)c1ccc(OC(F)(F)F)cc1 [Indoxacarb],,Inactive,
COc1cccc(C(=O)NN(C(=O)c2cc(C)cc(C)c2)C(C)(C)C)c1C [Methoxyfenozide],,Inactive,

# Target: CYP3A4 (Homo sapiens, UniProt P08684)
# Sequence (P08684 whole entry): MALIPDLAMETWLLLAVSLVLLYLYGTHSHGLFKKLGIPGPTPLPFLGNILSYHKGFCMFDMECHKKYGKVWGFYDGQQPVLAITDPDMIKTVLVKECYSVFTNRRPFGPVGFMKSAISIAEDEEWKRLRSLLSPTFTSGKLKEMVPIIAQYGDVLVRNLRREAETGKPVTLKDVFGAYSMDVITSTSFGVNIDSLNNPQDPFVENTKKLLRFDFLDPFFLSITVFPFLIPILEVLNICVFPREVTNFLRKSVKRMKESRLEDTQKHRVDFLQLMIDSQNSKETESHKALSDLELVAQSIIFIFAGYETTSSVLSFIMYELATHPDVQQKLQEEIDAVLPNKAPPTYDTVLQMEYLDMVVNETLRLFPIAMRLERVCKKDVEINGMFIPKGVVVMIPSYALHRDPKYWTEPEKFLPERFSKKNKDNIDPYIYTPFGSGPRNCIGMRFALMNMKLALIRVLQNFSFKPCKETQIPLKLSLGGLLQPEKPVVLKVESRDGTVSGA
# Assay: biochemical
# Settings: not given
row,Structure (SMILES),IC50 [µM]
1,COc1cc(N)c(Cl)cc1C(=O)NC1CCN(Cc2ccccc2)CC1 [Clebopride maleate],2.06 ± 0.47

# Same assay, conditions: CYP3A4 AC50 (half-maximal activity concentration)
row,Structure (SMILES),AC50 [µM]
1,"O=S(=O)(Oc1ccc(Cl)cc1Cl)c1ccccc1 [2,4-Dichlorophenyl benzenesulfonate]",3.27

# Same assay, conditions: CYP3A4 IC50
row,Structure (SMILES),IC50 [µM]
1,c1ccc2sc(SN(C3CCCCC3)C3CCCCC3)nc2c1,5.16
2,"Cc1ccccc1NC(=N)Nc1ccccc1C [1,3-Bis(2-methylphenyl)guanidine]",41
3,Cc1ccc2ccc3cccc4ccc1c2c34 [1-Methylpyrene],30.5
4,"Cc1cc(C)c(N)cc1C [2,4,5-Trimethylaniline]",35.5
5,"Cc1cc(-c2ccc(N)c(C)c2)ccc1N [3,3'-Dimethylbenzidine]",10.6

# Same assay, conditions: CYP3A4 IC50 (half-maximal inhibitory concentration)
row,Structure (SMILES),IC50 [µM]
1,Fc1ccc([C@]2(Cn3cncn3)O[C@H]2c2ccccc2Cl)cc1 (racemic) [Epoxiconazole],0.91
2,CC(C)(C)[C@@H](O)[C@@H](Cc1ccc(Cl)cc1)n1cncn1 (racemic) [Paclobutrazol],0.14
3,"Nc1ccc(N)c2c1C(=O)c1ccccc1C2=O [1,4-Diaminoanthraquinone]",5.17
4,"O=S(=O)(Oc1ccc(Cl)cc1Cl)c1ccccc1 [2,4-Dichlorophenyl benzenesulfonate]",2.12
5,Nc1ccc2c(c1)C(=O)c1ccccc1C2=O [2-Aminoanthraquinone],1.64
6,"CN(C)c1ccc(Cc2ccc(N(C)C)cc2)cc1 [4,4'-Methylenebis(N,N-dimethylaniline)]",19.9
7,"Cc1cc(O)c(C(C)(C)C)cc1Sc1cc(C(C)(C)C)c(O)cc1C [4,4'-Thiobis(6-tert-butyl-m-cresol)]",7.29
8,COc1ccc(C(O)(c2cncnc2)C2CC2)cc1 (stereo not drawn) [Ancymidol],0.8
9,COC(=O)N(C(=O)N1CO[C@@]2(C(=O)OC)Cc3cc(Cl)ccc3C2=N1)c1ccc(OC(F)(F)F)cc1 [Indoxacarb],2.61
10,COc1cccc(C(=O)NN(C(=O)c2cc(C)cc(C)c2)C(C)(C)C)c1C [Methoxyfenozide],0.74

# Target: human CYP2C19 (Homo sapiens, UniProt P33261)
# Sequence (P33261 whole entry): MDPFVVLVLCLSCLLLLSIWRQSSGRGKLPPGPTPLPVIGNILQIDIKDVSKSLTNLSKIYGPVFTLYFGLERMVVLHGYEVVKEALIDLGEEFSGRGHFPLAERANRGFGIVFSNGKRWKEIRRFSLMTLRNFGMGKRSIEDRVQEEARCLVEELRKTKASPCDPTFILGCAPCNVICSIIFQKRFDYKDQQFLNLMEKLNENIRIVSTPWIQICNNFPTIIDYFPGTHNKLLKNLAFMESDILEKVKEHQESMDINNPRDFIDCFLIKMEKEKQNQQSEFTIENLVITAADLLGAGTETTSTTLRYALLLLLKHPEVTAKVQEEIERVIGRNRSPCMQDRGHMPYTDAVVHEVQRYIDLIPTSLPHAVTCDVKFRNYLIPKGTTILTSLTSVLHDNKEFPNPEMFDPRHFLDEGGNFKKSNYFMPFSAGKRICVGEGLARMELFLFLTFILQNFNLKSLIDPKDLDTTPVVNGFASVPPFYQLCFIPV
# Assay: biochemical
# Settings: not given
row,Structure (SMILES),IC50 [µM]
1,COc1cc(N)c(Cl)cc1C(=O)NC1CCN(Cc2ccccc2)CC1 [Clebopride maleate],38.9

# Same assay, conditions: CYP2C19 AC50 (half-maximal activity concentration)
row,Structure (SMILES),AC50 [µM]
1,"O=S(=O)(Oc1ccc(Cl)cc1Cl)c1ccccc1 [2,4-Dichlorophenyl benzenesulfonate]",0.77

# Same assay, conditions: CYP2C19 IC50
row,Structure (SMILES),IC50 [µM]
1,c1ccc2sc(SN(C3CCCCC3)C3CCCCC3)nc2c1,15.6
2,"Cc1ccccc1NC(=N)Nc1ccccc1C [1,3-Bis(2-methylphenyl)guanidine]",1.11
3,Cc1ccc2ccc3cccc4ccc1c2c34 [1-Methylpyrene],31.8
4,"Cc1cc(C)c(N)cc1C [2,4,5-Trimethylaniline]",9.81
5,"Cc1cc(-c2ccc(N)c(C)c2)ccc1N [3,3'-Dimethylbenzidine]",6.24

# Same assay, conditions: CYP2C19 IC50 (half-maximal inhibitory concentration)
row,Structure (SMILES),IC50 [µM]
1,Fc1ccc([C@]2(Cn3cncn3)O[C@H]2c2ccccc2Cl)cc1 (racemic) [Epoxiconazole],0.34
2,CC(C)(C)[C@@H](O)[C@@H](Cc1ccc(Cl)cc1)n1cncn1 (racemic) [Paclobutrazol],0.33
3,"Nc1ccc(N)c2c1C(=O)c1ccccc1C2=O [1,4-Diaminoanthraquinone]",24.7
4,"O=S(=O)(Oc1ccc(Cl)cc1Cl)c1ccccc1 [2,4-Dichlorophenyl benzenesulfonate]",0.49
5,Nc1ccc2c(c1)C(=O)c1ccccc1C2=O [2-Aminoanthraquinone],14
6,"CN(C)c1ccc(Cc2ccc(N(C)C)cc2)cc1 [4,4'-Methylenebis(N,N-dimethylaniline)]",0.22
7,"Cc1cc(O)c(C(C)(C)C)cc1Sc1cc(C(C)(C)C)c(O)cc1C [4,4'-Thiobis(6-tert-butyl-m-cresol)]",0.38
8,COc1ccc(C(O)(c2cncnc2)C2CC2)cc1 (stereo not drawn) [Ancymidol],19.3
9,COC(=O)N(C(=O)N1CO[C@@]2(C(=O)OC)Cc3cc(Cl)ccc3C2=N1)c1ccc(OC(F)(F)F)cc1 [Indoxacarb],0.17
10,COc1cccc(C(=O)NN(C(=O)c2cc(C)cc(C)c2)C(C)(C)C)c1C [Methoxyfenozide],3.43

# Same assay, conditions: IC50 CYP2C19 assay
row,Structure (SMILES),IC50 [µM]
1,"O=S(=O)(Oc1ccc(Cl)cc1Cl)c1ccccc1 [2,4-Dichlorophenyl benzenesulfonate]",0.42

# Target: human CYP2D6 (Homo sapiens, UniProt P10635)
# Sequence (P10635 whole entry): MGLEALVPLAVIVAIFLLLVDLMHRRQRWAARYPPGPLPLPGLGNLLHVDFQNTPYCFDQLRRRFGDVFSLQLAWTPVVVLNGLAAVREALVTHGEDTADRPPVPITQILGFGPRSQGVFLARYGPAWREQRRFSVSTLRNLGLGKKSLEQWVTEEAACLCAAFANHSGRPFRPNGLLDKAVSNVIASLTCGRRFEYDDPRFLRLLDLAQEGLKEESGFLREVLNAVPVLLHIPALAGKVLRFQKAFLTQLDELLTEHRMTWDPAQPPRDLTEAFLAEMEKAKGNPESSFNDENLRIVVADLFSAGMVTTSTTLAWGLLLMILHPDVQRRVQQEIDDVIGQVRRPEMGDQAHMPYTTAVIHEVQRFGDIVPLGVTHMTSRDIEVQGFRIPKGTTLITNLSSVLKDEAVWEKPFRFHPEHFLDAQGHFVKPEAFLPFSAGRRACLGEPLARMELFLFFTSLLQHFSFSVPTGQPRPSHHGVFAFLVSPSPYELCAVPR
# Assay: biochemical
# Settings: not given
row,Structure (SMILES),IC50 [µM]
1,"Cc1cc(-c2ccc(N)c(C)c2)ccc1N [3,3'-Dimethylbenzidine]",3.41
2,COc1cc(N)c(Cl)cc1C(=O)NC1CCN(Cc2ccccc2)CC1 [Clebopride maleate],0.03

# Same assay, conditions: CYP2D6 AC50 (half-maximal activity concentration)
row,Structure (SMILES),AC50 [µM]
1,"O=S(=O)(Oc1ccc(Cl)cc1Cl)c1ccccc1 [2,4-Dichlorophenyl benzenesulfonate]",51.1

# Same assay, conditions: CYP2D6 IC50
row,Structure (SMILES),IC50 [µM]
1,c1ccc2sc(SN(C3CCCCC3)C3CCCCC3)nc2c1,0.56
2,"Cc1ccccc1NC(=N)Nc1ccccc1C [1,3-Bis(2-methylphenyl)guanidine]",0.01
3,Cc1ccc2ccc3cccc4ccc1c2c34 [1-Methylpyrene],55.4
4,"Cc1cc(C)c(N)cc1C [2,4,5-Trimethylaniline]",38.1

# Same assay, conditions: CYP2D6 IC50 (half-maximal inhibitory concentration)
row,Structure (SMILES),IC50 [µM]
1,Fc1ccc([C@]2(Cn3cncn3)O[C@H]2c2ccccc2Cl)cc1 (racemic) [Epoxiconazole],37
2,CC(C)(C)[C@@H](O)[C@@H](Cc1ccc(Cl)cc1)n1cncn1 (racemic) [Paclobutrazol],36.8
3,"Nc1ccc(N)c2c1C(=O)c1ccccc1C2=O [1,4-Diaminoanthraquinone]",33
4,"O=S(=O)(Oc1ccc(Cl)cc1Cl)c1ccccc1 [2,4-Dichlorophenyl benzenesulfonate]",64.4
5,Nc1ccc2c(c1)C(=O)c1ccccc1C2=O [2-Aminoanthraquinone],41.4
6,"CN(C)c1ccc(Cc2ccc(N(C)C)cc2)cc1 [4,4'-Methylenebis(N,N-dimethylaniline)]",40.1
7,"Cc1cc(O)c(C(C)(C)C)cc1Sc1cc(C(C)(C)C)c(O)cc1C [4,4'-Thiobis(6-tert-butyl-m-cresol)]",24.4
8,COc1ccc(C(O)(c2cncnc2)C2CC2)cc1 (stereo not drawn) [Ancymidol],47
9,COC(=O)N(C(=O)N1CO[C@@]2(C(=O)OC)Cc3cc(Cl)ccc3C2=N1)c1ccc(OC(F)(F)F)cc1 [Indoxacarb],14
10,COc1cccc(C(=O)NN(C(=O)c2cc(C)cc(C)c2)C(C)(C)C)c1C [Methoxyfenozide],44

# Target: T2, human CYP2C9 (Homo sapiens, UniProt P11712)
# T2 sequence (P11712 whole entry): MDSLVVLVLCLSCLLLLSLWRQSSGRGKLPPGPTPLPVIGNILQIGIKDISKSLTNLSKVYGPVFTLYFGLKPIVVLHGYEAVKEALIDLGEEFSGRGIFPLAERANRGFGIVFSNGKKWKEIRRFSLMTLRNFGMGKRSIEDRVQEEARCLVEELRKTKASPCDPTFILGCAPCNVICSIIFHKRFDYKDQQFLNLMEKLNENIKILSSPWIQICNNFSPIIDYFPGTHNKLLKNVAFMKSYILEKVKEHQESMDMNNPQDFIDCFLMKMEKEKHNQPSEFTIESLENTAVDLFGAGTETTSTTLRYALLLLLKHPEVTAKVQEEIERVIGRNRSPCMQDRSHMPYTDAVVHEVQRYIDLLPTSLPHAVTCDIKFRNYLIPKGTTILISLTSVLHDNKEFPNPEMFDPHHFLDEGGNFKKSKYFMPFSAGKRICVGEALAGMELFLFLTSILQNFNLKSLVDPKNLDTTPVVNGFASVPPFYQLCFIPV
# Assay: not given
# Settings: not given
row,Structure (SMILES),CYP2C9 IC50 (half-maximal inhibitory concentration)
1,COc1cc(N)c(Cl)cc1C(=O)NC1CCN(Cc2ccccc2)CC1 [Clebopride maleate],Inactive

# Target: T2, human CYP2C9
# Assay: biochemical
# Settings: not given
row,Structure (SMILES),IC50 [µM]
1,"Cc1cc(-c2ccc(N)c(C)c2)ccc1N [3,3'-Dimethylbenzidine]",23.4

# Same assay, conditions: CYP2C9 AC50 (half-maximal activity concentration)
row,Structure (SMILES),AC50 [µM]
1,"O=S(=O)(Oc1ccc(Cl)cc1Cl)c1ccccc1 [2,4-Dichlorophenyl benzenesulfonate]",35.7

# Same assay, conditions: CYP2C9 IC50
row,Structure (SMILES),IC50 [µM]
1,c1ccc2sc(SN(C3CCCCC3)C3CCCCC3)nc2c1,8.95
2,Cc1ccc2ccc3cccc4ccc1c2c34 [1-Methylpyrene],55.4
3,"Cc1cc(C)c(N)cc1C [2,4,5-Trimethylaniline]",32.9

# Same assay, conditions: CYP2C9 IC50 (half-maximal inhibitory concentration)
row,Structure (SMILES),IC50 [µM]
1,Fc1ccc([C@]2(Cn3cncn3)O[C@H]2c2ccccc2Cl)cc1 (racemic) [Epoxiconazole],5.66
2,CC(C)(C)[C@@H](O)[C@@H](Cc1ccc(Cl)cc1)n1cncn1 (racemic) [Paclobutrazol],12.1
3,"O=S(=O)(Oc1ccc(Cl)cc1Cl)c1ccccc1 [2,4-Dichlorophenyl benzenesulfonate]",39.2
4,Nc1ccc2c(c1)C(=O)c1ccccc1C2=O [2-Aminoanthraquinone],22.5
5,"CN(C)c1ccc(Cc2ccc(N(C)C)cc2)cc1 [4,4'-Methylenebis(N,N-dimethylaniline)]",25.5
6,"Cc1cc(O)c(C(C)(C)C)cc1Sc1cc(C(C)(C)C)c(O)cc1C [4,4'-Thiobis(6-tert-butyl-m-cresol)]",4.21
7,COc1ccc(C(O)(c2cncnc2)C2CC2)cc1 (stereo not drawn) [Ancymidol],38.2
8,COC(=O)N(C(=O)N1CO[C@@]2(C(=O)OC)Cc3cc(Cl)ccc3C2=N1)c1ccc(OC(F)(F)F)cc1 [Indoxacarb],3.35
9,COc1cccc(C(=O)NN(C(=O)c2cc(C)cc(C)c2)C(C)(C)C)c1C [Methoxyfenozide],18.1

# Target: T1, human CYP1A2
# Assay: biochemical
# Settings: CYP1A2 AC50 (half-maximal activity concentration)
row,Structure (SMILES),AC50 [µM]
1,"O=S(=O)(Oc1ccc(Cl)cc1Cl)c1ccccc1 [2,4-Dichlorophenyl benzenesulfonate]",2.24

# Same assay, conditions: CYP1A2 IC50
row,Structure (SMILES),IC50 [µM]
1,c1ccc2sc(SN(C3CCCCC3)C3CCCCC3)nc2c1,32.9
2,Cc1ccc2ccc3cccc4ccc1c2c34 [1-Methylpyrene],0.86
3,"Cc1cc(C)c(N)cc1C [2,4,5-Trimethylaniline]",0.87
4,"Cc1cc(-c2ccc(N)c(C)c2)ccc1N [3,3'-Dimethylbenzidine]",0.47

# Same assay, conditions: CYP1A2 IC50 (half-maximal inhibitory concentration)
row,Structure (SMILES),IC50 [µM]
1,Fc1ccc([C@]2(Cn3cncn3)O[C@H]2c2ccccc2Cl)cc1 (racemic) [Epoxiconazole],3.92
2,CC(C)(C)[C@@H](O)[C@@H](Cc1ccc(Cl)cc1)n1cncn1 (racemic) [Paclobutrazol],74.8
3,"Nc1ccc(N)c2c1C(=O)c1ccccc1C2=O [1,4-Diaminoanthraquinone]",0.35
4,"O=S(=O)(Oc1ccc(Cl)cc1Cl)c1ccccc1 [2,4-Dichlorophenyl benzenesulfonate]",1.58
5,Nc1ccc2c(c1)C(=O)c1ccccc1C2=O [2-Aminoanthraquinone],0.2
6,"CN(C)c1ccc(Cc2ccc(N(C)C)cc2)cc1 [4,4'-Methylenebis(N,N-dimethylaniline)]",4.55
7,"Cc1cc(O)c(C(C)(C)C)cc1Sc1cc(C(C)(C)C)c(O)cc1C [4,4'-Thiobis(6-tert-butyl-m-cresol)]",40

# Same assay, conditions: IC50 CYP1A2 assay
row,Structure (SMILES),IC50 [µM]
1,"Cc1cc(C)c(N)cc1C [2,4,5-Trimethylaniline]",0.79
2,"Cc1cc(-c2ccc(N)c(C)c2)ccc1N [3,3'-Dimethylbenzidine]",0.64

# — article PMC12155096 (International Journal of Molecular Sciences, 2025)
